The results in this text go back to patent US20090317372A1, “SMALL MOLECULES FOR THE REDUCTION OF HIGH BLOOD GLUCOSE LEVEL” (priority 2008, published 2009).

Holding throughout (type): in vivo
For one assay, the system named is mice with PC-3 tumor. The experiment in a line: Glucose tolerance test in the PC-3 tumor model, chronic and acute CCcompound1. The procedure:
The experimental PC-3 human tumors were developed in a homozygous line of C.B.-171 cr scid/scid adult female mice that were kept at specified pathogen free (SPF) hygienic level. Treatments with CCcompound1 (4.5 mg/kg) were started on day 12 after tumor implantation and conducted for 5+5 days with 2 treatment-free days inserted between the 2 series of treatments. A control group (10 mice) received no treatment, while another group (10 mice) received 4.5-mg/kg of CCcompound1 once every day between days 12-24. The results, shown in TABLE 8, indicate that between days 12 and 24 after tumor implantation, the prostate tumor caused about 6.9-g loss in lean body weight (4.1-g loss in total body weight). In contrast, animals treated with CCcompound1 actually gained 6.3-g lean body weight.
Tumors and cachexia are usually associated with insulin resistance. […] Both groups were starved for 14 hours and divided into two sub-groups; one subgroup remained untreated on day 25, another subgroup was administered 4.5-mg/kg of CCcompound1 60 min prior to administration of 3-g/kg of glucose. Blood samples were taken and blood glucose was analyzed as described earlier. […] In contrast, in animals that received chronic (C) treatment with CCcompound1 for 12 days, reduction in blood glucose level was clearly faster. Importantly, acute (A) treatment with CCcompound1 was almost as effective in cancer mice as in normal mice in reducing blood glucose level

The subject of assay [1] is ob/ob mice. In words: Blood glucose in ob/ob mice, CCcompound1 combined with human proteins AGP and TF. The procedure:
For each experimental group, ob/ob mice were chosen (5 mice in each group) that were 43 days old and weighed on average 40.3±1.9-g on the first day of experiment. Three groups of mice were treated with s.c. injection of 4.5-mg/kg CCcompound1 once every day for 17 days. Mice in one of these CCcompound1-treated groups received no other treatment, and their blood was drawn for glucose analysis on day 14 and 17 exactly 45 min after treatment. The second CCcompound1-treated group also received 0.5-mg/mouse (˜11 mg/kg) dose of greater than 98% pure commercial human transferrin [catalogue number, T 3309 according to 2004/2005 Sigma catalogue]. In this second group the blood was drawn on day 14 just prior to TF administration and on day 17 two hours after TF and 45 min after CCcompound1 administration. An additional group of animals received only TF treatment. The third CCcompound1-treated group also received 1.2-mg/mouse (26.6-mg/kg) dose of >99% pure human AGP [catalogue number G 9885 according to 2004/2005 Sigma catalogue]; in this group the blood was drawn on day 14 just prior to AGP administration and on day 17 two hours and 45 minutes after administration of AGP and CCcompound1, respectively. An additional group of animals received only AGP treatment, and yet another group of animals received no treatment at all. On day 1, prior to any treatment, the blood glucose level of all animals was in the range of 7.2-7.9 mM.

Assay [2] concerns ob/ob mice. In words: Glucose tolerance test with ob/ob mice. As to the method: In this experiment, 43 days old ob/ob mice weighing 40.3±1.8-g on average were used. One group of mice (5 animals) remained untreated for the subsequent 14 days. Two other groups of mice (each including 5 animals) were treated on each day for 13 days with 4.5-mg/kg dose of CCcompound1. On the 14th day the first group received only i.p. injection of glucose (3-g/kg) (first column in TABLE 13); the second group first received s.c. injection of CCcompound1, followed six hours later by i.p. injection of glucose (3-g/kg) (second column in TABLE 13); the third group first received s.c. injection of CCcompound1, followed 45 min later by i.p. injection of glucose (3-g/kg) (third column in TABLE 13). In each case, blood was first drawn 1-5 min prior to the administration of glucose, followed by drawing blood samples at 30 min, 60 min, 120 min and 180 min. The results shown in TABLE 13 indicate that CCcompound1 can effectively lower blood glucose level even after administration of a large amount of glucose. […] This probably means that the effect of CCcompound1 on blood glucose level requires its physical presence in the circulation and is not mediated by a secondary mechanism.

For `Cc1c(OCC(O)C[N+](C)(C)C)cc2c(=O)c3ccccc3sc2c1C.[Cl-]` (stereo not drawn) [CCcompound 1, [3-(3,4-Dimethyl-9-oxo-9H-thioxanthen-2-yloxy)-2-hydroxypropyl]trimethyl-ammonium chloride], the Blood glucose in the assay with mice with PC-3 tumor (acute (A): 4.5-mg/kg 60 min prior to glucose on day 25, 0 min) worked out at 2.3 ± 0.2 mM; in the assay with mice with PC-3 tumor (acute (A), 30 min), 5.5 ± 0.6 mM; in the assay on mice with PC-3 tumor (acute (A), 60 min) it was 4.4 ± 0.7 mM; with mice with PC-3 tumor (acute (A), 120 min), 3.5 ± 0.4 mM; in the assay with mice with PC-3 tumor (chronic (C): 4.5-mg/kg daily days 12-24, 0 min), 1.8 ± 0.4 mM; in the assay on mice with PC-3 tumor (chronic (C), 30 min) it was 7.1 ± 0.5 mM. Also, the Blood glucose in the assay with mice with PC-3 tumor (chronic (C), 60 min) turned out to be 6.5 ± 0.4 mM; in the assay on mice with PC-3 tumor (chronic (C), 120 min), 4.9 ± 0.6 mM; with mice with PC-3 tumor (chronic + acute (C + A), 0 min), 2.1 ± 0.5 mM; in the assay on mice with PC-3 tumor (chronic + acute (C + A), 30 min) it was 5.1 ± 0.4 mM; with mice with PC-3 tumor (chronic + acute (C + A), 60 min) it was 3.9 ± 0.4 mM; in the assay with mice with PC-3 tumor (chronic + acute (C + A), 120 min) it was 3.1 ± 0.3 mM. Further, the Blood glucose came out at 10.7 ± 0.2 mM in the assay on ob/ob mice [2] (4.5-mg/kg daily 13 days, day 14 s.c. 45 min prior to glucose 3-g/kg i.p., 0 min); 17.8 ± 0.3 mM in the assay with ob/ob mice [2] (4.5-mg/kg daily 13 days, day 14 s.c. 6 hours prior to glucose 3-g/kg i.p., 0 min); 11.9 ± 0.4 mM in the assay with ob/ob mice [2] (s.c. 45 min prior to glucose, 30 min); 11.4 ± 0.3 mM with ob/ob mice [2] (s.c. 45 min prior to glucose, 60 min); 11.0 ± 0.3 mM in the assay on ob/ob mice [2] (s.c. 45 min prior to glucose, 120 min); 10.9 ± 0.3 mM in the assay with ob/ob mice [2] (s.c. 45 min prior to glucose, 180 min). Moreover, the Blood glucose is 20.7 ± 0.2 mM with ob/ob mice [2] (s.c. 6 hours prior to glucose, 30 min); 20.2 ± 0.2 mM in the assay with ob/ob mice [2] (s.c. 6 hours prior to glucose, 60 min); 19.6 ± 0.2 mM with ob/ob mice [2] (s.c. 6 hours prior to glucose, 120 min); 18.9 ± 0.3 mM with ob/ob mice [2] (s.c. 6 hours prior to glucose, 180 min). In addition, the Blood glucose level in the assay on ob/ob mice [1] (14th day, CC1 4.5-mg/kg s.c. daily, 45 min after treatment, blood drawn just prior to AGP or TF administration) was 10.9 ± 0.9 mM; in the assay with ob/ob mice [1] (17th day, 45 min after CC1 4.5-mg/kg s.c., two hours after TF 0.5-mg/mouse or AGP 1.2-mg/mouse) it was 11.4 ± 0.4 mM.
